This series is described as follows: gradient 5% acetonitrile 3 min, to 50% in 2 min, to 85% in 15 min, held 3 min, 100 µL/min. To be noted: column: Zorbax Extend-C18 2.1 x 50 mm; eluents: water / acetonitrile, 0.1% formic acid. Put shortly:
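The system's dead and dwell volumes were 40 μL and 900 μL, with a Zorbax Extend-C18 column (2.1 × 50 mm, 1.8 μm) run at 100 μL/min in water and acetonitrile containing 0.1% formic acid each. Pure standards were analyzed in mixtures of ~100 molecules by HPLC–quadrupole time-of-flight mass spectrometry in positive and negative ionization mode. Retention time was assigned from computationally picked, manually inspected adduct peaks.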
The compound `COc1ccc(OC)c(CNC(=O)Cc2cccn2-c2ccc(C)cc2)c1` registered an RP-LC retention time of 750 s. Consider `CNC(=O)c1ccc(-n2c(C)ccc2C)nc1`, for which the RP-LC retention time was 697 s.

For the compound `Cc1ccc(S(=O)(=O)N2CCC(n3cnc4c(C)cccc4c3=O)CC2)cc1C`, the RP-LC retention time was 1050 s. To `C=CCNS(=O)(=O)CCNC(=O)c1ccccc1` belongs 629 s; to `CCOc1ccc(-n2nc(CO)c(C(=O)NC3CC3)n2)cc1`, 814 s. `Cc1ccc2c(c1)N(S(C)(=O)=O)CCC(C(=O)NC1CCCCCC1)O2` (centres undefined) displayed an RP-LC retention time of 957 s. In turn, `CC(C)C[C@H](NC(=O)C1OC1C(=O)O)C(=O)NCCCCN=C(N)N` (some centres undefined) displayed an RP-LC retention time of 591 s. To `Cc1ccc(C)c(NS(=O)(=O)c2ccc(-c3nnc(C4CCC4)o3)o2)c1` belongs 960 s. `COc1cc(OC)cc(-c2noc(Cn3ccn4nc(-c5ccc(Cl)cc5)cc4c3=O)n2)c1` came in with an RP-LC retention time of 1130 s.

For the compound `CCn1c(=O)oc2cc(-c3noc(CNC(=O)c4ccccc4)n3)ccc21`, the RP-LC retention time stood at 801 s. Consider `O=C(Cc1ccccc1F)N1CCC(c2nc(-c3ccccc3)no2)C1` (centres undefined), for which the RP-LC retention time came out at 922 s. As to `COc1ccccc1C(=O)Nc1nnc(SCc2ccc(Br)cc2)s1`, the RP-LC retention time is 1140 s.

`Cc1c(NC(=O)c2cccc3c2-c2ccccc2C3=O)c(=O)n(-c2ccccc2)n1C` registered an RP-LC retention time of 658 s.

For `NC(=O)C1CCN(C2CC(=O)N(c3ccccc3Sc3ccccc3)C2=O)CC1` (centres undefined), the RP-LC retention time was 650 s.

In the case of `Cc1ccc(NC(=O)N2CCC(n3cnc4ccc(C)cc4c3=O)CC2)cc1`, the RP-LC retention time turned out to be 801 s.

Regarding `CCCNC(=O)c1cc(C)nc2ccc(Cl)cc12`, the RP-LC retention time came out at 719 s. To `O=C(C1CCN(S(=O)(=O)c2cc(-c3noc(C4CCC4)n3)cs2)CC1)N1CCOCC1` belongs 863 s. For `O=S(=O)(c1cccnc1)N1CC[C@@H]2COCCN(Cc3cccnc3)[C@@H]2C1`, the RP-LC retention time is 577 s. In the case of `Cc1ccc(NC(=O)CN2C(=O)C3CCCCN3c3ccc(S(=O)(=O)N4CCCCC4)cc32)cc1` (centres undefined) it was 987 s; in that of `Cn1cc(CN2CCC(C(=O)NC3CCCCC3)CC2)c2cc(Cl)ccc21`, 702 s.

Consider `Cc1cc(C(=O)Nc2ccc(N3CCOCC3)cc2)nc2cc(-c3ccsc3)nn12`, for which the RP-LC retention time was found to be 1030 s.

`O=C(NC1CCN(c2cc(-c3ccc(Cl)cc3)[nH]n2)C1)c1ccccc1Br` (centres undefined) yielded an RP-LC retention time of 787 s. To `CCCNC(=O)c1cnn(-c2ccc(-c3nc(C(C)C)no3)cn2)c1C` belongs 907 s. As for `Cc1ccc(NC(=O)NC2CCN(c3ccc(F)c(C)c3)C2=O)c(C)c1` (centres undefined), the RP-LC retention time was found to be 874 s.

`CC(Oc1ccccc1F)C(=O)Nc1ccc(-c2nc(-c3ccccc3)no2)cc1` (centres undefined) came in with an RP-LC retention time of 1260 s.

With `Cc1ccc(CNC(=O)c2cc3c(s2)CCN(C(=O)c2ccc(F)cc2)C3)o1`, the RP-LC retention time was determined as 847 s. `CCn1ccc(C(=O)N2CCCn3nc(-c4ccc(C)cc4)cc3C2)n1` displayed an RP-LC retention time of 805 s. In the case of `CCn1nccc1C(=O)NC1CCN(C2=NS(=O)(=O)C(c3ccccc3)=C2C)CC1`, the RP-LC retention time was determined as 764 s. For `O=C(NC1CCN(c2ncnc3c2CCC3)C1)c1ccsc1` (centres undefined), the RP-LC retention time was determined as 580 s. To `CNS(=O)(=O)c1ccc(C(=O)N2CCc3ccccc3C2)o1` belongs 724 s; to `Cc1ccc(C)c(-c2nc(-c3ccc4c(c3)oc(=O)n4C)no2)c1`, 1220 s.

Consider `COc1ccc(-c2nnc(COc3ccc(NC(=O)c4ccoc4)cc3)o2)cc1`, for which the RP-LC retention time was 738 s. In turn, `CCNC(=O)NC1CCN(C(=O)C2CCC2)C1` (centres undefined) returned an RP-LC retention time of 578 s. Take `COCCNCc1ccc(-c2cc(Cl)cc(Cl)c2)o1`: the RP-LC retention time turned out to be 722 s.

(Values after the METLIN SMRT retention time set (Domingo-Almenara et al. 2019).)
